In patent publication US20250136617A1 (The Regents of the University of Colorado, A Body Corporate, priority 2022, published 2025):
Read-outs that look alike come from different tables or passages of the source.

Key:
[1] = molecular target: CXCR4 (Homo sapiens, UniProt P61073); experiment: β-arrestin recruitment, 384-well, Tango CXCR4-bla U2OS cells, normalized to SDF-1α; type: cell-based; set-up: host or cells: U2OS; conditions: for ß-arrestin recruitment Emax (%): normalized to maximal SDF-1α response; for Emax: U2OS
Protocol: Tango™ CXCR4-bla U2OS Cells (Invitrogen; K1779) were used for (β-arrestin recruitment assays and maintained as a monolayer culture in McCoy's 5a (Corning; 10-050-CV) supplemented with 10% dialyzed Fetal Bovine Serum (Gibco; 26400-044), 0.1 mM MEM Non-essential amino acids solution, 25 mM HEPES solution (Corning; 25-060-CI), 1 mM Sodium Pyruvate (Gibco; 11360-070), 200 μg/mL Zeocin selection reagent (Gibco; R25001), 50 μg/mL Hygromycin B (Gibco, 10687010), and 100 μg/mL Geneticin (G418 Sulfate) (Gibco, 10131035). U2OS cells were subcultured twice weekly by 0.05% Trypsin-EDTA treatment (Corning; 25-051-CI) and passaged to continue exponential growth phase for cell signaling assays. All cell cultures were maintained in cell culture incubators at 37° C. with 5% CO2. CHO-K1 CXCR4 cells (DiscoverX, Fremont, CA, USA) were used for cAMP inhibition assays and maintained as a monolayer culture in DMEM/F12 (Corning; 10-091-CV) supplemented with 10% Fetal Bovine Serum (Corning; 35-011-CV) and 100IU penicillin, […] streptomycin sulfate (Corning; 30-002-CI) and […] G418 (Gibco; 101310350. Cells were subculture 2 times weekly by o.o5% Trypsin-EDTA treatment (Corning; 25-051-CI) and passaged to continue exponential growth phase for cell signaling assays. All cell cultures were maintained in cell culture incubators at 37° C. with 5% CO2.CEM-CCRF cells (ATCC CCL-119) were used in both the migration and calcium flux assays and were cultured in growth media consisting of RPMI 1640 (Corning; 10-040-CV) supplemented with 10% Fetal Bovine Serum (Corning; 35-011-CV), and 100 IU penicillin, […] streptomycin sulfate (Corning; 30-002-CI). Cells were maintained in suspension and sub-cultured twice weekly to maintain cell densities between 0.8×10^6 cells/mL and 2.5×10^6 cells/mL to maintain exponential growth phase. Cells were harvested for use in migration and calcium flux assays at 2.0×10^6 cells/mL to 2.5×10^6 cells/mL and resuspended in assay media to desired density for respective experiments.
Tango™ CXCR4-bla U2OS Cells were resuspended in assay media consisting of DMEM (Corning; Corning, NY) supplemented with 1% dialyzed Fetal bovine serum, 0.1 mM MEM Non-essential amino acids solution, 25 mM HEPES solution (Corning; Corning, NY), 1 mM Sodium Pyruvate and 100 IU penicillin, […] streptomycin sulfate (Corning; Corning, NY) at a density of 3.0×10^5 cells/ml. Assay media FreeStyle 293 expression Medium (Gibco; 12338018) was used for testing the thiadiazine scaffold CXCR4 agonists. Cells suspension was dispensed at 30 μl per well into assay plate and incubated overnight in a cell culture incubator at 37° C. with 5% CO2. […] Following overnight incubation, LiveBlazer FRET B/G Loading Kit (Invitrogen; K1095) working reagent was prepared according to supplier guidelines and 6 μl of solution was dispensed into each well; 8 μL of solution for testing the thiadiazine scaffold CXCR4 agonists. Assay plate was covered and incubated in a dark place for two hours and Fluorescence Intensity was measured using the BMG LABTECH CLARIOstar Plus (BMG LABTECH Inc., Cary, NC) according to the LiveBlazer FRET B/G Loading Kit excitation and emission measurement guidelines.
Results are expressed as mean±SD for 3 to 5 independent experiments. Statistically significant differences in gene expression between two groups were assessed by Student's T-test, ANOVA with an appropriate post hoc test was be used for multiple comparisons. P<0.05 was considered to be statistically significant. All concentration response curves were analyzed to determine EC50 and Emax using the following equation:
where Y is the normalized response (0-100%), X is the log of concentration of compound tested, and the Hill slope is equal to 1.0% and 100% activity are specific to each assay. […]

[2] = system: CEM-CCRF human lymphoblast cells; experiment: Transwell migration assay in CEM-CCRF lymphoblasts; type: cell-based
Protocol: Thus, to confirm CXCR4 functional activity, UCUF-728 was evaluated in a 96 w transwell migration assay in CEM human lymphoblast cells.
CEM-CCRF (ATCC CCL-119) were suspended in RPMI 1640 (Corning; 10-040-CV) at 5.0×10^5 cells/mL and allowed to incubate in cell culture incubator at 37° C. with 5% CO2 for one hour. […] Plates were reassembled and placed in a cell culture incubator at 37° C. with 5% CO2 for three hours. After incubation, Multi-Screen plate was disassembled and 100 μl of solution was collected from compound receiver tray and transferred to 96 well luminescent plate (Thermo Scientific; 265302) and an equal volume of ATPLite Istep luminescence reagent (Perkin Elmer, Waltham, MA; 6016731) was added to each well. Luminescence was measured using the CLARIOstar Plus (BMG LABTECH Inc., Cary, NC).

[3] = normalized to SDF-1, read-out: TANGO β-arrestin EC50
[4] = normalized to SDF-1α, read-out: ß-arrestin recruitment EC50
[5] = Homo sapiens, read-out: Migration CEM EC50 (μM)
[6] = normalized to SDF-1, read-out: TANGO β-arrestin Emax (%)
[7] = Homo sapiens, read-out: Migration CEM EC50

Sequence of CXCR4 (P61073 whole entry): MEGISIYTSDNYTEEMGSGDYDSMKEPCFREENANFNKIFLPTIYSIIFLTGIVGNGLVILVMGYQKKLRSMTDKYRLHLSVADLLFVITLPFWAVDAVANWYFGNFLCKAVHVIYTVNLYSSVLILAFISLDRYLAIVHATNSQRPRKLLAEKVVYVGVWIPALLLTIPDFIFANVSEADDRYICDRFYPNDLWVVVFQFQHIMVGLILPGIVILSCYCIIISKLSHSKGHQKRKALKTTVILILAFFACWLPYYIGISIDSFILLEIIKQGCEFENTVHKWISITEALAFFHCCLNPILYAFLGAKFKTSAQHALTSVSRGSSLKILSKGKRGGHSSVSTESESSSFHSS

| SMILES | EC50 [1, 3] [µM] | Emax [1, 6] [%] | further results |
| --- | --- | --- | --- |
| COc1ccccc1-c1nnc2n1N=C(c1ccccc1)CS2 | > 80 | – | – |
| COc1ccccc1-c1nnc2n1N=C(c1ccc([N+](=O)[O-])cc1)CS2 | – | – | EC50 [1, 4]: > 80 µM |
| COc1ccc(C2=Nn3c(nnc3-c3ccccc3OC)SC2)cc1 [Entry 1] | < 5 | – | TANGO β-arrestin Emax (%) ([1]; normalized to SDF-1): B (35 < B < 70); EC50 [1, 4]: 0.054 µM; ß-arrestin recruitment Emax (%) [1]: 45% |
| CCOc1ccccc1-c1nnc2n1N=C(c1ccc(OC)cc1)CS2 [Entry 3] | < 5 | > 70 | Emax ([2]; Homo sapiens): 35 to 70%; EC50 [2, 5]: < 5 µM |
| CCCCOc1ccc(C2=Nn3c(nnc3-c3ccccc3OC)SC2)cc1 [Entry 5] | < 5 | < 35 | EC50 [2, 5]: > 10 µM |
| C=CCOc1ccc(C2=Nn3c(nnc3-c3ccccc3OCC)SC2)cc1 [Entry 6] | < 5 | > 70 | Migration CEM Emax (%) [2]: B (35 < B < 70); EC50 ([2]; read-out: Migration CEM EC50): < 5 µM |
| C=CCOc1ccc(C2=Nn3c(nnc3-c3ccccc3OCC)SC2)cc1 [Entry 7] | < 5 | – | Migration CEM Emax (%) [2]: A (A ≥ 70); EC50 [2, 7]: < 5 µM; TANGO β-arrestin Emax (%) ([1]; normalized to SDF-1): A (A ≥ 70) |
| COCCOc1ccc(C2=Nn3c(nnc3-c3ccccc3OC)SC2)cc1 [Entry 8] | < 5 | < 35 | Emax ([2]; Homo sapiens): < 35%; EC50 [2, 5]: < 5 µM |
| CCOc1ccccc1-c1nnc2n1N=C(c1ccc(OC(F)(F)F)cc1)CS2 [Entry 10] | < 5 | > 70 | Emax ([2]; Homo sapiens): > 70%; EC50 [2, 5]: 5 to 50 µM |
| CCOc1ccccc1-c1nnc2n1N=C(c1ccc(OC(F)F)cc1)CS2 [Entry 11] | < 5 | 35 to 70 | Emax ([2]; Homo sapiens): > 70%; EC50 [2, 5]: < 5 µM |
| COc1ccccc1-c1nnc2n1N=C(c1ccc(SC)cc1)CS2 [Entry 12] | < 5 | > 70 | Emax ([2]; Homo sapiens): 35 to 70%; EC50 [2, 7]: < 5 µM |
| COc1ccccc1-c1nnc2n1N=C(c1ccc(N(C)C)cc1)CS2 [Entry 13] | < 5 | > 70 | Emax ([2]; Homo sapiens): 35 to 70%; EC50 [2, 7]: < 5 µM; Emax ([1]; read-out: ß-arrestin recruitment Emax (%)): 91%; EC50 [1, 4]: 0.06 µM |
| CCOc1ccccc1-c1nnc2n1N=C(c1ccc(N3CCCC3)cc1)CS2 [Entry 14] | < 5 | > 70 | Migration CEM Emax (%) [2]: B (35 < B < 70); EC50 [2, 7]: < 5 µM |
| CCOc1ccccc1-c1nnc2n1N=C(c1ccc(N3CCCC3)cc1)CS2 [Entry 15] | < 5 | – | Migration CEM Emax (%) [2]: A (A ≥ 70); EC50 ([2]; read-out: Migration CEM EC50): < 5 µM; TANGO β-arrestin Emax (%) ([1]; normalized to SDF-1): A (A ≥ 70) |
| COc1ccccc1-c1nnc2n1N=C(c1ccc(N3CCOCC3)cc1)CS2 [Entry 16] | 5 to 50 | – | Migration CEM Emax (%) [2]: A (A ≥ 70); EC50 ([2]; read-out: Migration CEM EC50): 5 to 50 µM; TANGO β-arrestin Emax (%) ([1]; normalized to SDF-1): A (A ≥ 70) |
| COc1ccccc1-c1nnc2n1N=C(c1ccc(C)cc1)CS2 [Entry 17] | < 5 | 35 to 70 | – |
| CCc1ccc(C2=Nn3c(nnc3-c3ccccc3OC)SC2)cc1 [Entry 18] | < 5 | 35 to 70 | – |
| CCCCc1ccc(C2=Nn3c(nnc3-c3ccccc3OC)SC2)cc1 [Entry 19] | 5 to 50 | – | TANGO β-arrestin Emax (%) ([1]; normalized to SDF-1): C (C ≤ 35); EC50 [1, 4]: 14.1 µM; ß-arrestin recruitment Emax (%) [1]: 12% |
| COc1ccccc1-c1nnc2n1N=C(c1ccc(-c3ccccc3)cc1)CS2 [Entry 20] | 5 to 50 | > 70 | – |
| COc1ccccc1-c1nnc2n1N=C(c1ccc(N3CCOCC3)cc1)CS2 [Entry 25] | 5 to 50 | > 70 | – |
| CCOc1ccccc1-c1nnc2n1N=C(c1ccc(N)cc1)CS2 [Entry 26] | > 10 | – | – |
| CCOc1ccccc1-c1nnc2n1N=C(c1ccc(N3CCCCC3)cc1)CS2 [Entry 27] | > 10 | – | EC50 [2, 7]: > 10 µM |

| SMILES | EC50 [1, 3] [µM] | Emax [1, 6] [%] | further results |
| --- | --- | --- | --- |
| CCOc1ccccc1-c1nnc2n1N=C(c1ccc(N3CCC3)cc1)CS2 [Entry 28] | < 5 | 35 to 70 | – |
| CCOc1ccccc1-c1nnc2n1N=C(c1ccc3c(c1)CCCN3)CS2 [Entry 29] | < 5 | – | Migration CEM Emax (%) [2]: C (C ≤ 35); EC50 ([2]; read-out: Migration CEM EC50): 5 to 50 µM; TANGO β-arrestin Emax (%) ([1]; normalized to SDF-1): A (A ≥ 70) |
| CCOc1ccccc1-c1nnc2n1N=C(c1ccc(NC(C)=O)cc1)CS2 [Entry 30] | < 5 | – | EC50 ([2]; read-out: Migration CEM EC50): > 10 µM; TANGO β-arrestin Emax (%) ([1]; normalized to SDF-1): C (C ≤ 35); EC50 [1, 4]: > 10 µM |
| CCOc1ccccc1-c1nnc2n1N=C(c1ccc(NC(=O)C(C)C)cc1)CS2 [Entry 31] | > 10 | – | EC50 ([2]; read-out: Migration CEM EC50): > 10 µM; EC50 [1, 4]: > 10 µM |
| CCOc1ccccc1-c1nnc2n1N=C(c1ccc(NC(=O)C3CCCC3)cc1)CS2 [Entry 33] | > 10 | – | – |
| CCOc1ccccc1-c1nnc2n1N=C(c1ccc(NCC(=O)O)cc1)CS2 [Entry 40a] | – | – | Emax ([2]; Homo sapiens): 23%; EC50 [2, 5]: 0.32 µM |
| CCOc1ccccc1-c1nnc2n1N=C(c1ccc(NC3CCC3)cc1)CS2 [Entry 44] | < 5 | > 70 | – |
| c1ccc(C2=Nn3c(nnc3-c3ccccc3)SC2)cc1 [Entry 50] | > 80 | – | – |
| COc1ccc(C2=Nn3c(nnc3-c3ccccc3)SC2)cc1 [Entry 51] | 5 to 50 | 35 to 70 | – |
| COc1ccc(C2=Nn3c(nnc3-c3ccccc3)SC2)cc1OC [Entry 52] | > 80 | – | – |
| COc1ccc(C2=Nn3c(nnc3-c3ccccc3OC)SC2)c(OC)c1 [Entry 54] | < 5 | 35 to 70 | – |
| COc1ccc(C2=Nn3c(nnc3-c3ccccc3OC)SC2)cc1 [Entry 55] | < 5 | 35 to 70 | – |
| COc1ccc(OC)c(-c2nnc3n2N=C(c2ccc(OC)c(OC)c2)CS3)c1 [Entry 56] | < 5 | – | TANGO β-arrestin Emax (%) ([1]; normalized to SDF-1): B (35 < B < 70) |
| CCOc1ccccc1-c1nnc2n1N=C(c1ccc(OC)c(OC)c1)CS2 [Entry 57] | < 5 | 35 to 70 | – |
| COc1cccc(-c2nnc3n2N=C(c2ccccc2)CS3)c1 [Entry 58] | > 80 | – | – |
| COc1ccc(-c2nnc3n2N=C(c2ccccc2)CS3)cc1 [Entry 59] | > 80 | – | – |
| COc1ccc(C2=Nn3c(nnc3-c3cccc(OC)c3)SC2)cc1 [Entry 60] | < 5 | 35 to 70 | – |
| COc1cc(-c2nnc3n2N=C(c2ccccc2)CS3)cc(OC)c1OC [Entry 61] | > 80 | – | – |
| COc1cc(-c2nnc3n2N=C(c2ccc(Br)cc2)CS3)cc(OC)c1OC [Entry 62] | < 5 | – | TANGO β-arrestin Emax (%) ([1]; normalized to SDF-1): B (35 < B < 70) |
| COc1cccc(C2=Nn3c(nnc3-c3ccccc3OC)SC2)c1 [Entry 85] | – | – | EC50 [1, 4]: 10.7 µM; ß-arrestin recruitment Emax (%) [1]: 40% |
| CCOc1ccccc1-c1nnc2n1N=C(c1ccc(N3CCCC3)cc1)CS2 [compound 24] | – | – | Migration CEM Emax (%) [2]: A (A ≥ 70) |
